Test results: article PMC8341910, “Structural and biophysical insights into the mode of covalent binding of rationally designed potent BMX inhibitors” (RSC Chemical Biology, 2020)
Where “and” joins values, the source holds several entries; their conditions need not be identical. Identical values can stand only once.

Columns and labels:
[1] = test system: 22 RV1; experiment: Multi cell line growth assay (CellTiter-Glo, 72 h); format: cell-based, human; details: Homo sapiens, 22Rv1, Prostate, ND = no growth inhibition observed
[2] = molecular target: T1, His6-hsBMX (Homo sapiens, UniProt P51813); experiment: Surface plasmon resonance (SPR); format: binding; details: 1:1 Langmuir fit, 25 °C
T1 construct: Crystallization, data collection, and structure determination of BMX catalytic domain in; made in house; host or cells: Sf-9 insect cells
Source text: response upon compound injection (t=0s), or upon washing (t=220s), on immobilized His6-
hsBMX surfaces. Compound concentrations injected on already saturated surfaces were not
included in the 1:1 Langmuir fitting model. X-axis: time (s); y-axis: response (arbitrary units).
Inset plots [x-axis: compound concentration (M); y-axis: response (arbitrary units)] show the
steady-state affinity (KDss) fit for the interactions wherein equilibrium was reached.
Surface Plasmon Resonance:
The kinetic and affinity parameters of protein-compound interaction were evaluated by SPR.
Experiments were carried out in a Biacore 4000 instrument (Biacore AB, GE Healthcare Life
Sciences, Uppsala, Sweden) at 25 °C. His6-BMX protein was diluted to 10 µg/mL in sodium
acetate pH 5.5, in the presence of 5 µM staurosporine and immobilized onto CM5 (Series S)
sensor chips, using the standard amine coupling procedure. Prior to immobilization, the
carboxymethylated surface of the chip was activated with 400 mM 1-ethyl-3-(3-
dimethylaminopropyl)-carbodiimide and 100 mM N-hydroxysuccinimide for 10 min. HBS-N
(10 mM HEPES pH7.4, 150mM NaCl) was used as the background buffer. Protein was coupled
to the surface after 2 to 10 min injection times, at a flow rate of 10 µL/min, in order to reach
1500 to 3500 response units (RU). The remaining activated carboxymethylated groups were
blocked with a 7 min injection of 1 M ethanolamine pH 8.5. Compounds were pre-diluted in
DMSO to 50x the desired highest tested concentration and diluted afterwards in running buffer
(20 mM HEPES pH 7.4, 150 mM NaCl, 1 mM DTT, 0.1 mM EGTA, 0.05 % (v/v) TWEEN-
20, 5 mM MgCl2) in order to reach 2% of DMSO concentration. A DMSO solvent correction
(1% - 3%) was performed to account for variations in bulk signal and to achieve high-quality
data. Each compound was injected over immobilized His6-BMX for 220 s (30 µL min-1;
association phase) followed by 600 to 2000 s of buffer flow (dissociation phase) at a maximum
five times in 2-fold dilution series. All sensorgrams were processed by first subtracting the
binding response recorded from the control surface (reference spot), followed by subtracting
the buffer blank injection from the reaction spot. All datasets were fit to a simple 1:1 Langmuir
interaction model with the provided Biacore 4000 Evaluation software, to determine kinetic rate constants (kon, koff) or steady-state affinity (KDss).

[3] = molecular target: T2, hBMX (Homo sapiens, UniProt P51813); experiment: Mass spectrometry of drug-conjugated hBMX; details: 2.5 mM compound, room temperature, 30 min, PBS pH 7.4; MS/MS after digestion
T2 construct: Crystallization, data collection, and structure determination of BMX catalytic domain in; made in house; host or cells: Sf-9 insect cells
Experimental: Mass spectrometry (MS) studies confirmed the covalent binding of JS24 at cysteine 496 of BMX. The truncated hBMX was analyzed by native MS and the protein mass found was 30899 Da (Fig. 2a). The protein was then treated with 2.5 mM of JS24 at room temperature for 30 min in PBS pH 7.4 and directly analyzed by denaturing MS. The protein was fully denatured and cleaned on a reverse phase column, discarding any non-specific binding, to retain only any covalently linked compound. The mass found upon incubation with JS24 is 31 424 Da, which is 525 Da larger than the apo-form of hBMX (Fig. 2b).
Fig. 2 Mass spectrometric analysis of BMX and JS24 conjugated to BMX. (a) Native MS analysis of hBMX. The measured molecular weight is indicated. […] The measured molecular weight is indicated. […]
The BMX enzyme system (Catalog. V4512) and the ADP-GloTM kinase assay were purchased from Promega Corporation (USA). […] Then, 10 µL of kinase detection reagent was added into the wells and incubated for 30 min to produce a luminescence signal. The signal was measured using an Infinite M200 Microplate Reader (Tecan Group Ltd, Switzerland), with an integration time of 0.250s. The observed rate constants for inhibition (kobs), at different inhibitor concentrations, were determined from the slope of a semi-logarithmic plot of inhibition versus time, and re-plotted against inhibitor concentration (nM). […]

[4] = test system: LNCaP; experiment: Multi cell line growth assay (CellTiter-Glo, 72 h); format: cell-based, human; details: Homo sapiens, LNCaP, Prostate, ND = no growth inhibition observed within the concentrations tested
[5] = test system: DAUDI; experiment: Multi cell line growth assay (CellTiter-Glo, 72 h); format: cell-based, human; details: Homo sapiens, Daudi, Lymphoid, ND = no growth inhibition observed
[6] = test system: SK-N-MC; experiment: Multi cell line growth assay (CellTiter-Glo, 72 h); format: cell-based, human; details: Homo sapiens, SK-N-MC, Brain, ND = no growth inhibition observed
[7] = molecular target: LYN (Homo sapiens, UniProt P07948); experiment: KINOMEscan binding; details: read-out: % Ctrl LYN
Experimental: (§1) Therefore, we included the whole TEC, EGFR and JAK family in our screening, and the Src family and Lkb1, which also have a cysteine within the same sequence alignment. We also included kinases involved in upstream (Src, FAK, PI3K, mTOR, PDK1) and downstream (Akt, PAK1, TAM) regulation of BMX signaling pathway and non-receptor tyrosine protein kinase Abl.
(§2) Kinome selectivity was performed with DiscoverX KINOMEscan™ technology.

[8] = molecular target: TYK2(JH1domain-catalytic) (Homo sapiens, UniProt P29597); experiment: KINOMEscan binding; details: read-out: % Ctrl TYK2(JH1domain-catalytic)
Experimental: as §1, §2

[9] = molecular target: BLK (Homo sapiens, UniProt P51451); experiment: KINOMEscan binding; details: read-out: % Ctrl BLK
Experimental: (§3) Therefore, we included the whole TEC, EGFR and JAK family in our screening, and the Src family and Lkb1, which also have a cysteine within the same sequence alignment.
as §2

[10] = molecular target: BTK (Homo sapiens, UniProt Q06187); experiment: KINOMEscan binding; details: read-out: % Ctrl BTK
Experimental: as §3, §2

[11] = molecular target: NanoLuc®-BMX fusion vector in HEK293 cells (Homo sapiens, UniProt P51813); experiment: NanoBRET TE intracellular kinase assay; format: cell-based; details: HEK293 transiently transfected with BMX; 1 h; duplicate, mean ± S.D.; read-out: intracellular target engagement IC50
Experimental: Target Engagement Intracellular Kinase Assay:
In-cell target engagement was performed at the Reaction Biology Corporation (USA) using the NanoBRETTM technology. Very briefly, HEK296 cells, purchased from ATCC, were
with the reference compound Dasatinib, for 1 hour of incubation. Compounds were diluted 10 times with 3-fold dilution, starting at 1 µM. Curve fits were performed only when % NanoBret
determined using the GraphPad Prism 8 (USA).

[12] = molecular target: MTOR (Homo sapiens, UniProt P42345); experiment: KINOMEscan binding; details: read-out: % Ctrl MTOR
Experimental: as §1, §2

[13] = molecular target: HCK (Homo sapiens, UniProt P08631); experiment: KINOMEscan binding; details: read-out: % Ctrl HCK
Experimental: as §3, §2

[14] = molecular target: PIK3CG (Homo sapiens, UniProt P48736); experiment: KINOMEscan binding; details: read-out: % Ctrl PIK3CG
PIK3CG, sequence (P48736 whole entry): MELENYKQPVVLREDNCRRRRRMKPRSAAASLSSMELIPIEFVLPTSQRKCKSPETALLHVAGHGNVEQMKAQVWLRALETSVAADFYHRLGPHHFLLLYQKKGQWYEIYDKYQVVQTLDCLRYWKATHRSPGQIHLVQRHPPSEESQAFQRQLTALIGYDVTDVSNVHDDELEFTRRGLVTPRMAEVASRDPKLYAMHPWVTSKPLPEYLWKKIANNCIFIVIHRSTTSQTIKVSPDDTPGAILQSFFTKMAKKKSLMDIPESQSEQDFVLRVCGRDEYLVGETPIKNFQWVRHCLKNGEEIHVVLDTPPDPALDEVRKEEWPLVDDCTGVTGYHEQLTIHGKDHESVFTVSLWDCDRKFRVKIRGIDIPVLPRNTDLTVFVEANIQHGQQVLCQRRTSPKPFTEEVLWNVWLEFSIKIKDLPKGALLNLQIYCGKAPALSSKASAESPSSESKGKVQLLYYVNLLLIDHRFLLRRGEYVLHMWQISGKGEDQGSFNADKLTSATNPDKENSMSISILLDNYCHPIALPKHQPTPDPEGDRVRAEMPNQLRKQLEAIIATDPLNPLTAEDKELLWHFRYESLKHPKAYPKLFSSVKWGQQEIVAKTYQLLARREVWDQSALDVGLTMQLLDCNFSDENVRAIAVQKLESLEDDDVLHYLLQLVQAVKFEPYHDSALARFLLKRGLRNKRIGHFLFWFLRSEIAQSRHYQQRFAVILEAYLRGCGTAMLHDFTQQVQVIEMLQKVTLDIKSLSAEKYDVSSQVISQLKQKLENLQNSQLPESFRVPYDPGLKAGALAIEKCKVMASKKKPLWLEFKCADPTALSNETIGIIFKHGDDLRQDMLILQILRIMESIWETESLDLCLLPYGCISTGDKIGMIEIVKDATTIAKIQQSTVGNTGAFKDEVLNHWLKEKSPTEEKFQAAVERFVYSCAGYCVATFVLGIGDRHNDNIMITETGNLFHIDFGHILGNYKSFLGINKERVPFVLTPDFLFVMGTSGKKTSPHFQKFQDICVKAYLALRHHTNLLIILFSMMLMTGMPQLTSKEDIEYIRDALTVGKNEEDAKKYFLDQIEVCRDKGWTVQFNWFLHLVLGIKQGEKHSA
Experimental: as §1, §2

NanoLuc®-BMX fusion vector in HEK293 cells, sequence (P51813 whole entry, the tested form may be a part): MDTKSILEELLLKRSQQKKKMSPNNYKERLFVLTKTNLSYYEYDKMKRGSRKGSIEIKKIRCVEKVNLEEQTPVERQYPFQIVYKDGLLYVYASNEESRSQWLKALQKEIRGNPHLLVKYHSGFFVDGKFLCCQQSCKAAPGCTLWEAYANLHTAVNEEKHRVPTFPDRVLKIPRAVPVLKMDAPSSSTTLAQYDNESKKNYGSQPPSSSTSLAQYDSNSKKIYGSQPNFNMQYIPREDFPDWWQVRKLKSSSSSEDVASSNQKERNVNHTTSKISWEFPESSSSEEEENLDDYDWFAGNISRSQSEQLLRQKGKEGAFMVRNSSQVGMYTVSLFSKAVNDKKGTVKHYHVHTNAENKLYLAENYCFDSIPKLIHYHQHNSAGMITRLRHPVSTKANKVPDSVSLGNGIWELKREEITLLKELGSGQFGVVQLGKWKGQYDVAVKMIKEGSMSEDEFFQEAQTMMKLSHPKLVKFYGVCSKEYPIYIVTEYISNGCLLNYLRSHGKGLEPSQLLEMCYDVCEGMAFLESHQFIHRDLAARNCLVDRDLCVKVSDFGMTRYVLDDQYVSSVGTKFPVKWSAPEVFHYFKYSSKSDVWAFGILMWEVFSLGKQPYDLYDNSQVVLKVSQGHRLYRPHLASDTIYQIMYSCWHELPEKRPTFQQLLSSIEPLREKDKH
T1 sequence (P51813 417-675 limits assumed): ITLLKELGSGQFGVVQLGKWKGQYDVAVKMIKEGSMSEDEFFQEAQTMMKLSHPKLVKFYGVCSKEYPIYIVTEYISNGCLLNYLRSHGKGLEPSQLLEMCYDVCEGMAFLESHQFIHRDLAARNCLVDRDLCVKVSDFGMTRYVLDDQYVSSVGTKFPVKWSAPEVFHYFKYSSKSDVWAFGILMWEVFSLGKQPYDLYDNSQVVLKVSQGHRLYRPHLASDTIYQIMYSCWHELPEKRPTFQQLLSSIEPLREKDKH
BTK, sequence (Q06187 whole entry, species assumed, the tested form may be a part): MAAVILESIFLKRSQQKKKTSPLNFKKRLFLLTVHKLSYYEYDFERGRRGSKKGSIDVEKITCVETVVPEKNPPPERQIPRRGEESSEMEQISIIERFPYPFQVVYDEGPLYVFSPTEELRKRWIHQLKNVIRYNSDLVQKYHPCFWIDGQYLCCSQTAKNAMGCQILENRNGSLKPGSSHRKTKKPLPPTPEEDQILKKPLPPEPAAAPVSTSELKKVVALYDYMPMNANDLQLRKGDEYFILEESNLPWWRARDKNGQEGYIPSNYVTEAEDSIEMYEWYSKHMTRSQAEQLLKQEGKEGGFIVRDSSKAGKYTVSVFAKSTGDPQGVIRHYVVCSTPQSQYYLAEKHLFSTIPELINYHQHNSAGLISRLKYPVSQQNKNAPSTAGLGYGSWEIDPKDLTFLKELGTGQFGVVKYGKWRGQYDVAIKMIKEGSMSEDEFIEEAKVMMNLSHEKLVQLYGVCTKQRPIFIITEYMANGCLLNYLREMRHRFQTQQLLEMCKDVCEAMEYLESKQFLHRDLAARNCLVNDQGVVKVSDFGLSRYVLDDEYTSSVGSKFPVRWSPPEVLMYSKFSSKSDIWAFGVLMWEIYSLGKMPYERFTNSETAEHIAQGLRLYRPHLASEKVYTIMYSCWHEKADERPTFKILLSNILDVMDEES
TYK2(JH1domain-catalytic), sequence (P29597 889-1187 limits assumed): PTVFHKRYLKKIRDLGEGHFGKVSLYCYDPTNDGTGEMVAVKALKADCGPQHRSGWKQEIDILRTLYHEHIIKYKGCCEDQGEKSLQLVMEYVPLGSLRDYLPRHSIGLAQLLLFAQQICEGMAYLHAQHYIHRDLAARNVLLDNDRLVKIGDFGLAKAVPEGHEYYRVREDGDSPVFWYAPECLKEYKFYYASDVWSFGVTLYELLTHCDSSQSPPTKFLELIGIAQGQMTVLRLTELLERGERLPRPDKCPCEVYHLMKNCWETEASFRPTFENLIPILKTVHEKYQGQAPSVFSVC
BLK, sequence (P51451 whole entry): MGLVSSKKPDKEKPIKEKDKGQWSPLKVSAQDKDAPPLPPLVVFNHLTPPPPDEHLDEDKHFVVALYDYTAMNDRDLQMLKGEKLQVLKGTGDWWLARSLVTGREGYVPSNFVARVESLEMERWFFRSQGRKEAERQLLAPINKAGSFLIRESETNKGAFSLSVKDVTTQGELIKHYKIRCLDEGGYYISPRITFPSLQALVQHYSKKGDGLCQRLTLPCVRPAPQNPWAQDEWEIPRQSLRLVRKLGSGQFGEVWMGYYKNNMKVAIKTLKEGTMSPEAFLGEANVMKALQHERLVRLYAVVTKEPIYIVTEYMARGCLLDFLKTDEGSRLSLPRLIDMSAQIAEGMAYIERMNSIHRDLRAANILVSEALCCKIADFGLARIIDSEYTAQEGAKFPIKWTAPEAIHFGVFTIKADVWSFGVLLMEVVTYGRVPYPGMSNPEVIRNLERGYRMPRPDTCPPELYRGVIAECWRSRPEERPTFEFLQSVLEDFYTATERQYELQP
LYN, sequence (P07948 whole entry): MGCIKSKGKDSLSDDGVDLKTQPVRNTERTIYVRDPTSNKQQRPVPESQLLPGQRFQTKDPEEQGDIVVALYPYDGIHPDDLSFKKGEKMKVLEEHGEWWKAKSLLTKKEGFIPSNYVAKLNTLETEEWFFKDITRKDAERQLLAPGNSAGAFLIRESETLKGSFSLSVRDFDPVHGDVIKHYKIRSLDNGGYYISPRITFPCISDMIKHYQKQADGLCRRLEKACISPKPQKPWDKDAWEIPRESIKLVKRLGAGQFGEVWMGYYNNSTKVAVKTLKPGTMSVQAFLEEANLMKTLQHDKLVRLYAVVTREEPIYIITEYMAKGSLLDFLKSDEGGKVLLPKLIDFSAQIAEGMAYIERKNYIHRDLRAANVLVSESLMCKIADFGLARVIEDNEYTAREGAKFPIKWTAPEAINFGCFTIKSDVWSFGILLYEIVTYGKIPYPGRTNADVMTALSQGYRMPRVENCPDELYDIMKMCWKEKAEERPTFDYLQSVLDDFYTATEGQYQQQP
HCK, sequence (P08631 whole entry): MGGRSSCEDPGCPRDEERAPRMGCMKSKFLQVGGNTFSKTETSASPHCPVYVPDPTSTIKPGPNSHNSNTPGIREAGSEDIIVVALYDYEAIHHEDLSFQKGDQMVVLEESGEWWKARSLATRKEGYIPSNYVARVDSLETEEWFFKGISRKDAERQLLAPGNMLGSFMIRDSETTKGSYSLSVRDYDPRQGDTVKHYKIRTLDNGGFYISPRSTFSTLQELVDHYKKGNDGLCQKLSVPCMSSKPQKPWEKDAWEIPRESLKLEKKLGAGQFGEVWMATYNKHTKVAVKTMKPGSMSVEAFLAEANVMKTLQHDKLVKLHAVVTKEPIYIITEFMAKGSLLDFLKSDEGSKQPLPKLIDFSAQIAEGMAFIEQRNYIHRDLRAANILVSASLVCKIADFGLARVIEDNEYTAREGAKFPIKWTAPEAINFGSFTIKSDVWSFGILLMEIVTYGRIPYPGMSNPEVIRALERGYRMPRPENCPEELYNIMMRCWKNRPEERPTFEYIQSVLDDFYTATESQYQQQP
T2 sequence (P51813 417-675 limits assumed): as the sequence (P51813 417-675 limits assumed) above

Row | koff [2] [s⁻¹] | kon [2] [M⁻¹ s⁻¹] | GI50 [4] [µM] | GI50 [5] [µM] | GI50 [6] [µM] | SMILES | GI50 [1] [µM] | site of covalent modification of hBMX [3] | remaining binding at 1 µM [7] [%] | remaining binding at 1 µM [8] [%] | remaining binding at 1 µM [9] [%] | remaining binding at 1 µM [10] [%] | IC50 [11] | remaining binding at 1 µM [12] [%] | remaining binding at 1 µM [13] [%] | remaining binding at 1 µM [14] [%]
1 | < 0.0001 | 140000 | 4.4 | 1.27 ± 0.05 | 8.53 ± 0.44 | C=CC(=O)Nc1cc(-n2c(=O)ccc3cnc4cc(-c5ccc(NS(C)(=O)=O)cc5)ccc4c32)ccc1C [JS24] | 6.66 ± 0.09 | covalent modification at cysteine residue 496 |  |  |  |  |  |  |  | 
2 |  |  |  |  |  | C=CC(=O)Nc1cc(C)cc(-n2c(=O)ccc3cnc4cc(-c5ccc(NS(C)(=O)=O)cc5)ccc4c32)c1 [JS25] |  |  | 100 | 100 | 16 | 0 | 0.0448 µM and 0.045 µM | 100 | 95 | 64
